“And” between values parts separate entries of the source, which are not always exact repeats. Identical values can stand only once.
System: 186277-243-T-J2-PDC complex spheroid viability
Test: Anticancer human tumor 186277-243-T-J2-PDC patient-derived colon adenocarcinoma cell line growth inhibition
Settings: for viability, T/C: stronger effect = lower value
Method in brief: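 Multicellular complex spheroids of tumor cells with human endothelial cells (HUVEC) and mesenchymal stem cells; the LSD1 inhibitor iadademstat was combined with standard-of-care or investigational agents. Top concentration at or near clinical Cmax, half-log dilutions; final DMSO ≤0.25%.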

[1] = curve of first compound, second compound 0.1 µM
[2] = curve of first compound, second compound 0.316 µM
[3] = curve of first compound, second compound 1 µM
[4] = curve of first compound, second compound 3.16 µM
[5] = curve of first compound, second compound 10 µM
[6] = second compound 0.1 µM, first compound 0.00949 µM
[7] = second compound 0.1 µM, first compound 0.03 µM
[8] = second compound 0.1 µM, first compound 0.0949 µM
[9] = second compound 0.1 µM, first compound 0.3 µM
[10] = second compound 0.316 µM, first compound 0.00949 µM
[11] = second compound 0.316 µM, first compound 0.03 µM
[12] = second compound 0.316 µM, first compound 0.0949 µM
[13] = second compound 0.316 µM, first compound 0.3 µM
[14] = second compound 1 µM, first compound 0.00949 µM
[15] = second compound 1 µM, first compound 0.03 µM
[16] = second compound 1 µM, first compound 0.0949 µM
[17] = second compound 1 µM, first compound 0.3 µM
[18] = second compound 3.16 µM, first compound 0.00949 µM
[19] = second compound 3.16 µM, first compound 0.03 µM
[20] = second compound 3.16 µM, first compound 0.0949 µM
[21] = second compound 3.16 µM, first compound 0.3 µM
[22] = second compound 10 µM, first compound 0.00949 µM
[23] = second compound 10 µM, first compound 0.03 µM
[24] = second compound 10 µM, first compound 0.0949 µM
[25] = second compound 10 µM, first compound 0.3 µM
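Also: 7 day exposure to compounds.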
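For viability, T/C in this document: 100% = DMSO vehicle control viability.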

Nc1ccn(C2OC(CO)C(O)C2(F)F)c(=O)n1 (configuration not stated) + NC1CCC(NC2CC2c2ccccc2)CC1
IC50 [1]: < 0.949 nM | IC50 [2]: < 0.949 nM | IC50 [3]: < 0.949 nM | IC50 [4]: < 0.949 nM | IC50 [5]: < 0.949 nM | viability, T/C (second compound 0.1 µM, first compound 0.000949 µM): 25.8% | viability, T/C (second compound 0.1 µM, first compound 0.003 µM): 17.1% | viability, T/C [6]: 16.5% | viability, T/C [7]: 15.9% | viability, T/C [8]: 15.9% | viability, T/C [9]: 15.1% | viability, T/C (second compound 0.316 µM, first compound 0.000949 µM): 22.9% | viability, T/C (second compound 0.316 µM, first compound 0.003 µM): 18.7% | viability, T/C [10]: 16.2% | viability, T/C [11]: 15.6% | viability, T/C [12]: 16.1% | viability, T/C [13]: 15.6% | viability, T/C (second compound 1 µM, first compound 0.000949 µM): 26% | viability, T/C (second compound 1 µM, first compound 0.003 µM): 18.6% | viability, T/C [14]: 18.1% | viability, T/C [15]: 18% | viability, T/C [16]: 16.8% | viability, T/C [17]: 16.3% | viability, T/C (second compound 3.16 µM, first compound 0.000949 µM): 27.2% | viability, T/C (second compound 3.16 µM, first compound 0.003 µM): 20.5% | viability, T/C [18]: 20.1% | viability, T/C [19]: 19.6% | viability, T/C [20]: 19.2% | viability, T/C [21]: 15.9% | viability, T/C (second compound 10 µM, first compound 0.000949 µM): 31.3% | viability, T/C (second compound 10 µM, first compound 0.003 µM): 25.1% | viability, T/C [22]: 25.3% | viability, T/C [23]: 18.5% | viability, T/C [24]: 23.3% | viability, T/C [25]: 20.9%

CCN(c1cc(-c2ccc(CN3CCOCC3)cc2)cc(C(=O)NCc2c(C)cc(C)[nH]c2=O)c1C)C1CCOCC1 + NC1CC1c1ccc(-c2cccc(O)c2)cc1
IC50 [1]: 2220 nM | IC50 [2]: 2280 nM | IC50 [3]: 2190 nM | IC50 [4]: 2220 nM | IC50 [5]: 2010 nM | viability, T/C [6]: 92% | viability, T/C [7]: 113% | viability, T/C [8]: 113% | viability, T/C [9]: 112% | viability, T/C (second compound 0.1 µM, first compound 0.949 µM): 123% | viability, T/C (second compound 0.1 µM, first compound 3 µM): 28.4% | viability, T/C [10]: 107% | viability, T/C [11]: 113% | viability, T/C [12]: 129% | viability, T/C [13]: 120% | viability, T/C (second compound 0.316 µM, first compound 0.949 µM): 120% | viability, T/C (second compound 0.316 µM, first compound 3 µM): 28.6% | viability, T/C [14]: 104% | viability, T/C [15]: 111% | viability, T/C [16]: 121% | viability, T/C [17]: 116% | viability, T/C (second compound 1 µM, first compound 0.949 µM): 120% | viability, T/C (second compound 1 µM, first compound 3 µM): 25.8% | viability, T/C [18]: 106% | viability, T/C [19]: 113% | viability, T/C [20]: 111% | viability, T/C [21]: 108% | viability, T/C (second compound 3.16 µM, first compound 0.949 µM): 124% | viability, T/C (second compound 3.16 µM, first compound 3 µM): 27.8% | viability, T/C [22]: 100% | viability, T/C [23]: 99.7% | viability, T/C [24]: 88.4% | viability, T/C [25]: 107% | viability, T/C (second compound 10 µM, first compound 0.949 µM): 103% | viability, T/C (second compound 10 µM, first compound 3 µM): 23.5%

CC1COCCN1c1cc(C2(S(C)(=N)=O)CC2)nc(-c2ccnc3[nH]ccc23)n1 (configuration not stated)
viability, T/C (compound 0.0316 µM): 103% and 87.2% | viability, T/C (compound 0.1 µM): 93.4% and 94.7% | viability, T/C (compound 0.316 µM): 44.4% and 91.3% | viability, T/C (compound 1 µM): 14.2% and 48% | viability, T/C (compound 3.16 µM): 8.73% and 10% | viability, T/C (compound 10 µM): 9.16% and 5.79% | IC50 (curve of compound): 278 nM and 952 nM

CC(C)CC(NC(=O)CNC(=O)c1cc(Cl)ccc1Cl)B1OC(=O)CC(CC(=O)O)(C(=O)O)O1 (configuration not stated) + NC1CCC(NC2CC2c2ccccc2)CC1
IC50 [1]: 20.5 nM | IC50 [2]: 20.3 nM | IC50 [3]: 18.6 nM | IC50 [4]: 19.6 nM | IC50 [5]: 19.5 nM | viability, T/C (second compound 0.1 µM, first compound 0.000316 µM): 102% | viability, T/C (second compound 0.1 µM, first compound 0.001 µM): 119% | viability, T/C (second compound 0.1 µM, first compound 0.00316 µM): 115% | viability, T/C (second compound 0.1 µM, first compound 0.01 µM): 98.8% | viability, T/C (second compound 0.1 µM, first compound 0.0316 µM): 20.6% | viability, T/C (second compound 0.1 µM, first compound 0.1 µM): 1.64% | viability, T/C (second compound 0.316 µM, first compound 0.000316 µM): 118% | viability, T/C (second compound 0.316 µM, first compound 0.001 µM): 114% | viability, T/C (second compound 0.316 µM, first compound 0.00316 µM): 117% | viability, T/C (second compound 0.316 µM, first compound 0.01 µM): 96.6% | viability, T/C (second compound 0.316 µM, first compound 0.0316 µM): 20.7% | viability, T/C (second compound 0.316 µM, first compound 0.1 µM): 1.44% | viability, T/C (second compound 1 µM, first compound 0.000316 µM): 113% | viability, T/C (second compound 1 µM, first compound 0.001 µM): 114% | viability, T/C (second compound 1 µM, first compound 0.00316 µM): 111% | viability, T/C (second compound 1 µM, first compound 0.01 µM): 87.3% | viability, T/C (second compound 1 µM, first compound 0.0316 µM): 18.3% | viability, T/C (second compound 1 µM, first compound 0.1 µM): 1.22% | viability, T/C (second compound 3.16 µM, first compound 0.000316 µM): 112% | viability, T/C (second compound 3.16 µM, first compound 0.001 µM): 107% | viability, T/C (second compound 3.16 µM, first compound 0.00316 µM): 110% | viability, T/C (second compound 3.16 µM, first compound 0.01 µM): 96.5% | viability, T/C (second compound 3.16 µM, first compound 0.0316 µM): 17.1% | viability, T/C (second compound 3.16 µM, first compound 0.1 µM): 1.04% | viability, T/C (second compound 10 µM, first compound 0.000316 µM): 105% | viability, T/C (second compound 10 µM, first compound 0.001 µM): 111% | viability, T/C (second compound 10 µM, first compound 0.00316 µM): 111% | viability, T/C (second compound 10 µM, first compound 0.01 µM): 98.5% | viability, T/C (second compound 10 µM, first compound 0.0316 µM): 15.1% | viability, T/C (second compound 10 µM, first compound 0.1 µM): 1.05%
